According to US6864378B2, “Integrated continuous process for anhydro sugar alcohol manufacture” (E. I. du Pont de Nemours and Company, priority 2002, dated 2005):

Type: physicochemical
Source text: The reaction product obtained by processes such as the above, contains about 70 to 80% by weight isosorbide and 20 to 30% undesired reaction byproducts. The reaction product thus needs to be subjected to one or more separation steps, such as evaporation, distillation or chromatographic separation, to isolate the isosorbide. Chromatographic separation is disclosed in U.S. Patent Application No. 60/246038 (filed 6, Nov. 2000). Separation by vaporization or distillation is difficult because of the low vapor pressure of isosorbide. […] Evaporation or distillation at temperatures not much higher than about 140° C. is desirable to-minimize product degradation and obtain good purity isosorbide, but the recovery is poor. At higher temperatures, e.g., 170° C., more isosorbide is recovered, but it is of poorer quality.
The sorbitans, dimers, and polymer byproducts are all considerably higher boiling than isosorbide. For example, the vapor pressure of the sorbitans is only about 0.04 mm Hg at 140° C., about one-fiftieth that of isosorbide. The dimers are even less volatile, and the polymers are practically nonvolatile. Therefore, the water vapor volatilizes most of the dianhydro sugar alcohols but not such high boiling byproducts. […]

vapor pressure: 1.75 mm Hg
Compound: O[C@@H]1CO[C@H]2[C@@H]1OC[C@@H]2O [isosorbide, 1,4:3,6-dianhydrosorbitol]
